From patent US20120245137A1 (Zalicus Pharmaceuticals Ltd., priority 2009, published 2012)
Like-named read-outs stand apart in the source and are kept apart here.

How the values were obtained:
Type in all cases: cell-based
[1] = target: N-type calcium channel subunits (α1B, α2δ, and β3a) (Homo sapiens, UniProt Q00975); test: Block of Cav2.2 channel, whole cell voltage clamp, manual and PatchXpress; settings: Table 5; table follows Assay Example 3 (whole cell voltage clamp / PatchXpress); assay not given
Experimental: Cells are grown either on poly-D-lysine coated coverglass (manual EP) or in TIS culture plates (PatchXpress). For the PatchExpress, cells are released from the flask using trypsin. In both cases, the […] solution is (in mM): 130 […], 10 EGTA, 10 HEPES, 2 MgCl2, 3 MgATP, pH 7.3 with CsOH.
Microelectrodes are fabricated from borosilicate glass and fire-polished. […] The reference electrode is a silver-silver chloride pellet. Voltages are not corrected for the liquid junction potential between the internal and external solutions and leak is subtracted using the P/n procedure. Solutions are applied to cells by bath perfusion via gravity. The experimental chamber volume is—0.2 mL. and the perfusion rate is 0.5-2 mL/min. Flow of suction through the chamber is maintained at all times. Measurement of current amplitudes is performed with […] software (HEKA Elektronik).
PatchXpress (Molecular Devices) is a 16-well whole-cell automated patch clamp device that operates asynchronously with fully integrated fluidics. […] Capacitance and series resistance compensation is automated. No correction for liquid junction potentials is employed. Leak is subtracted using the P/n procedure. Compounds are added to cells with a pipettor from a 96-well compound plate. Voltage protocols and the recording of membrane currents are performed using the PatchXpress software/hardware system. Current amplitudes are calculated with DataXpress software.
In both manual and automated patch clamp, cells are voltage clamped at […] or −90 m V and 50 ms pulses to +20 mV are applied every 15 sec (0.067 Hz). Compounds are added in escalating doses to measure % inhibition. Percent inhibition is calculated from the ratio of the curerent amplitude in the presence and absence of compound. When multiple doses are achieved per cell, IC50 values are calculated.

Human Cav 2.2 channels = Human Cav 2.2 channels (Homo sapiens, UniProt Q00975); test: Fluorescent assay for CaV2.2 channels using potassium depolarization (VIPR/FLIPR); settings: FLIPR data; for CAv2.2 IC50 Ratio closed/inact.: ratio closed/inactivated IC50
Excerpt: Human Cav 2.2 channels were stably expressed in HEK293 cells along with alpha2-delta and beta subunits of voltage-gated calcium channels. An inwardly rectifying potassium channel (Kir2.3) was also expressed in these cells to allow more precise control of the cell membrane potential by extracellular potassium concentration. At low bath potassium concentration, the membrane potential is relatively negative, and is depolarized as the bath potassium concentration is raised. In this way, the bath potassium concentration can be used to regulate the voltage-dependent conformations of the channels. […] After the incubation period, Cav2.2 channel opening is triggered by addition of higher concentration of potassium (70 mM final concentration) to further depolarize the cell. The degree of state-dependent block can be estimated from the inhibitory potency of compounds after incubation in different potassium concentrations.
Calcium influx through Cav 2.2 channels is determined using a calcium sensitive fluorescent dye in combination with a fluorescent plate reader. Fluorescent changes were measured with either a VIPR (Aurora Instruments) or FLIPR (Molecular Devices) plate reader.
1. Seed cells in Poly-D-Lysine Coated 96 or 384-well plate and keep in a 3rC-IO % C02 incubator overnight.
2. Remove media, wash cells with 0.2 mL (96-well plate) or 0.05 mL (384-well plate) Dulbecco's Phosphate Buffered Saline (D-PBS) with calcium & magnesium (Invitrogen; 14040).
3. Add 0.1 mL (96-well plate) or 0.05 mL (384-well plate) of 4˜M fluor-4 (Molecular Probes; F-14202) and 0.02% Pluronic acid (Molecular Probes; P-3(00) prepared in D-PBS with calcium & magnesium (Invitrogen; 14040) supplemented with 10 mM Glucose & 10 mM HepeslNaOH; pH 7.4.
4. Incubate in the dark at 25° C. for 60-70 min.
5. Remove dye, wash cells with 0.1 mL (96-well plate) or 0.06 mL (384-well plate) of 4, 12, 25, or 30 mM Potassium Pre-polarization Buffer (PPB).
6. Add 0.1 mL (96-well plate) or 0.03 mL (384-well plate) of 4, 12, 25, 30 mM PPB with or without test compound.
7. Incubate in the dark at 25° C. for 30 min
8. Read cell plate on VIPR instrument, Excitation=480 nm, Emission=535 nm.
9. With VIPR continuously reading, add 0.1 mL (96-well plate) or 0.03 mL (384-well plate) of Depolarization Buffer (DB), which is 2× the final assay concentration, to the cell plate.

T-type calcium channel = T-type calcium channel (Homo sapiens, UniProt O95180); test: T-type channel blocking, FLIPR data (Table 6); settings: for CAv3.2 IC50 Ratio closed/inact.: CAv3.2, ratio closed/inactivated IC50
Excerpt: Another method, high-throughput spectrophotometric assay, utilizes loading of the cell lines with a fluorescent dye sensitive to intracellular calcium concentration and subsequent examination of the effects of compounds on the ability of depolarization by potassium chloride or other means to alter intracellular calcium levels.

CAv1.2 = CAv1.2 (Homo sapiens, UniProt Q13936); test: FLIPR data, CAv1.2 channel blocking (Table 6)
Chain of CAv1.2 (Q13936 whole entry): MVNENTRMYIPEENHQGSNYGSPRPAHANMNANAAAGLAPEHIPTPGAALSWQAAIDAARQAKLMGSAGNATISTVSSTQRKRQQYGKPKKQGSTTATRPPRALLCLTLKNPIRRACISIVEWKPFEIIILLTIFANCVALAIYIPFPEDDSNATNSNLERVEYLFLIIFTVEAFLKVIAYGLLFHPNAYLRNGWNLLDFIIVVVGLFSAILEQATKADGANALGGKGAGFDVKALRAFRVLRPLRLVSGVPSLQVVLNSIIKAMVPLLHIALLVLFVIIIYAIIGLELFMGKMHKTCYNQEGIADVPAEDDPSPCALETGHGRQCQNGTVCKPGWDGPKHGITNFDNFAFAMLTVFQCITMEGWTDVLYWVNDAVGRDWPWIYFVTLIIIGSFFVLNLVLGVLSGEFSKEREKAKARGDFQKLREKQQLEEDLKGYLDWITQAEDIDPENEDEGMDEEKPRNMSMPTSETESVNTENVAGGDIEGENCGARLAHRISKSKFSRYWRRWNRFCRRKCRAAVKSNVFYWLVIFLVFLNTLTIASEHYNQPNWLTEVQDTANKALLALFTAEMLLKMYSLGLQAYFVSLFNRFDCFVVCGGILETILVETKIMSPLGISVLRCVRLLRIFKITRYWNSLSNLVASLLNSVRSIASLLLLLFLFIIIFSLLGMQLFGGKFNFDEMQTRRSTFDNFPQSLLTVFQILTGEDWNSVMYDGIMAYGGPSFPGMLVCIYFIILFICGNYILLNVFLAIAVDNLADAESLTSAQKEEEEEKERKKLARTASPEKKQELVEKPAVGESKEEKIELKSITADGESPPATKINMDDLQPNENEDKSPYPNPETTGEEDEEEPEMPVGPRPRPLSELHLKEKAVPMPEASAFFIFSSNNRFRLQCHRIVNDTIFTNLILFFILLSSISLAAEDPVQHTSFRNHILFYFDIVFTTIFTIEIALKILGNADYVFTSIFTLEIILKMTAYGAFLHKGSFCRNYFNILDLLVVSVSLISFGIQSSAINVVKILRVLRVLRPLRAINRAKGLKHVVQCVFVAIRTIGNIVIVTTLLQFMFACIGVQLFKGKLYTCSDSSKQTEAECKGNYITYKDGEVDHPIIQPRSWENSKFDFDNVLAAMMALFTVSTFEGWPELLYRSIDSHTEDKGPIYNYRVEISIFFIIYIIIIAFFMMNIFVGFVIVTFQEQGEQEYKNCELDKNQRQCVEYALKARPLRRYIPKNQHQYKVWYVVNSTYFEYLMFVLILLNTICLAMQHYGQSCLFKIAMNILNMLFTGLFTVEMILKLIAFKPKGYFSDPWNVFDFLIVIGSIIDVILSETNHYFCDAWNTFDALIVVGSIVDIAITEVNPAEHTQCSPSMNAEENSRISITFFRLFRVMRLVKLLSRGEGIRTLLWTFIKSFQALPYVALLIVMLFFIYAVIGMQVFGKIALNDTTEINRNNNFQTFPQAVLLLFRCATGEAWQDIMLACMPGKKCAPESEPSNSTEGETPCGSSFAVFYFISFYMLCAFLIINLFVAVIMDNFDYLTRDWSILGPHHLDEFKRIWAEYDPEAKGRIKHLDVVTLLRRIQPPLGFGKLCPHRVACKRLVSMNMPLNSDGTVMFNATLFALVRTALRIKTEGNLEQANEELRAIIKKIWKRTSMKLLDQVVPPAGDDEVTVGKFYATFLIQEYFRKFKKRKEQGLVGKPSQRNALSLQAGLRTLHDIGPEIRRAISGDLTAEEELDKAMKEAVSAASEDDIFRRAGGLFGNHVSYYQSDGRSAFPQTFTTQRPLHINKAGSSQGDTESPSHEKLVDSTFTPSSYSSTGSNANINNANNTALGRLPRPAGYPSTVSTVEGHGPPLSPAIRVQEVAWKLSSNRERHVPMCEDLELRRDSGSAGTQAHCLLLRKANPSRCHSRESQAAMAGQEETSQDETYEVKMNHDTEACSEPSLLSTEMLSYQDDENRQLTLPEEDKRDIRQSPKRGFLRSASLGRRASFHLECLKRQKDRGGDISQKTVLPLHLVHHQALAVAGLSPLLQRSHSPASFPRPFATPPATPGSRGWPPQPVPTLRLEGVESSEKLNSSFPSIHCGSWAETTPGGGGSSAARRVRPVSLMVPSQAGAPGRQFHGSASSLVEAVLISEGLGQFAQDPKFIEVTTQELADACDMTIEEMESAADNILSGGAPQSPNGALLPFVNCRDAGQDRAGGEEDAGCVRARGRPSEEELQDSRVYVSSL
Chain of CAv1.2 (P54289 25-1103 partner): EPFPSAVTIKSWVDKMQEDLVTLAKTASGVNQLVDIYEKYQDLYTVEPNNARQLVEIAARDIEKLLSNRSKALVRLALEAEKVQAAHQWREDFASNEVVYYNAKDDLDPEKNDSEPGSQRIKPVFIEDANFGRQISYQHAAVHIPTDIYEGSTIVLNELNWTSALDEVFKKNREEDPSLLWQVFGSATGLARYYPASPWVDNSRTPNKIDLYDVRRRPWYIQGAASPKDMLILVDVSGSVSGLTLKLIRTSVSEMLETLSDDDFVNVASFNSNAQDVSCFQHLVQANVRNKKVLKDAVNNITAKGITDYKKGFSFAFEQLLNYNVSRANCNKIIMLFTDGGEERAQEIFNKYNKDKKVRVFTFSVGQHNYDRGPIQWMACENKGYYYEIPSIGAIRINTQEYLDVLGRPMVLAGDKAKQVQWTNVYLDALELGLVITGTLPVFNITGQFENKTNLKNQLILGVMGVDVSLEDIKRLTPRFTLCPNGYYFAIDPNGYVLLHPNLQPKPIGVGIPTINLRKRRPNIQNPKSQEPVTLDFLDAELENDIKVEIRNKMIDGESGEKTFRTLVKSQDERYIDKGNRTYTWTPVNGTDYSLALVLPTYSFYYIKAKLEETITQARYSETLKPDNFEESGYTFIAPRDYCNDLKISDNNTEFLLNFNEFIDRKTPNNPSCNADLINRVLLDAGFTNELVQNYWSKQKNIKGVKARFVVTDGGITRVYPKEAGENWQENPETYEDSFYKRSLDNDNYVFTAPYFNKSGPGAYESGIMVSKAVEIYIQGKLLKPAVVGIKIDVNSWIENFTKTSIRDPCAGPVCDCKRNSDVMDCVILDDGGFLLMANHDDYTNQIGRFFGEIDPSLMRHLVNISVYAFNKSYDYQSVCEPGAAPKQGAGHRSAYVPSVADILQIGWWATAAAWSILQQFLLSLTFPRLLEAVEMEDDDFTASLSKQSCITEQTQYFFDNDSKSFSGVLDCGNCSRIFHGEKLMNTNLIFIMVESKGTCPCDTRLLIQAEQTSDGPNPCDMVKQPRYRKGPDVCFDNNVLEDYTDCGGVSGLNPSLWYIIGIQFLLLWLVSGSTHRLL
Chain of CAv1.2 (Q08289 whole entry partner): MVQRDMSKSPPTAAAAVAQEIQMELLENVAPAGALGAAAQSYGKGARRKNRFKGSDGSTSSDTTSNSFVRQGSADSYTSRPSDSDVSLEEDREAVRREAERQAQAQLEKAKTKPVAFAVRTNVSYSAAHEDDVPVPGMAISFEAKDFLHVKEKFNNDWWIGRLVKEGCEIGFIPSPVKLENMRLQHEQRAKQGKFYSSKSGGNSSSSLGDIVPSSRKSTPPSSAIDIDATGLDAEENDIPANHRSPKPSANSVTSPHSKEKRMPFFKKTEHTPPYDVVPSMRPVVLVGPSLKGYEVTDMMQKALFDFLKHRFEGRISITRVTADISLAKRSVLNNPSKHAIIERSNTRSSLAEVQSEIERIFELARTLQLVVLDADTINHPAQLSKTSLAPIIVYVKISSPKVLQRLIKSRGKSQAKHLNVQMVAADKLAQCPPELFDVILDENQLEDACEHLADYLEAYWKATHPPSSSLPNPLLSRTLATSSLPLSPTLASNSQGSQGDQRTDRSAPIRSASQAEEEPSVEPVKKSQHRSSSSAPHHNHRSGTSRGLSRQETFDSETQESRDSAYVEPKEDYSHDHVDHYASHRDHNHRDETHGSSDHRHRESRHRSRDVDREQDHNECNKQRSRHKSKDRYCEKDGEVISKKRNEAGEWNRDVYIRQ

[2] = closed state, read-out: CAv2.2 IC50 Closed
[3] = inactivated state, read-out: CAv2.2 IC50 Inact.
[4] = CAv3.2, closed state, read-out: CAv3.2 IC50 Closed
[5] = CAv3.2, inactivated state, read-out: CAv3.2 IC50 Inact.
[6] = closed state, read-out: CAv1.2 IC50 Closed
[7] = inactivated state, read-out: CAv1.2 IC50 Inact.

IC50 [1]	IC50 (Human Cav 2.2 channels; [2])	IC50 (Human Cav 2.2 channels; [3])	CAv2.2 IC50 Ratio closed/inact. (Human Cav 2.2 channels)	IC50 (T-type calcium channel; [4])	IC50 (T-type calcium channel; [5])	CAv3.2 IC50 Ratio closed/inact. (T-type calcium channel)	Compound	IC50 (CAv1.2; [6])	IC50 (CAv1.2; [7])
80 nM							CC(C)([C@H]1C[C@H](NC(=O)c2ccc(F)c(Cl)c2)C1)S(=O)(=O)c1cccc(C(F)(F)F)c1 [Compound 441, 3-chloro-4-fluoro-N-((1R,3R)-3-(2-(3-(trifluoromethyl)phenylsulfonyl)propan-2-yl)cyclobutyl)benzamide]		
	10 µM	2.64 µM	3.8	≥ 10 µM	10 µM	1	CNC1(CC(=O)N[C@H]2C[C@@H](C(C)(C)S(=O)(=O)c3cc(F)cc(C(F)(F)F)c3)C2)CCCCC1 [Compound 658]	≥ 10 µM	
	7.5 µM	2.34 µM	3.2	≥ 10 µM	10 µM	1	N[C@H]1CCCCC1C(=O)NC[C@H]1C[C@H](S(=O)(=O)c2cccc(OC(F)(F)F)c2)C1 (some centres unmarked) [Compound 709]	≥ 10 µM	
	7.67 µM	3.03 µM	2.5		10 µM		NC1(CC(=O)NC[C@H]2C[C@H](S(=O)(=O)c3cc(F)cc(C(F)(F)F)c3)C2)CCCCC1 [Compound 708]	≥ 10 µM	≥ 10 µM
	10 µM	0.9 µM	11.1	≥ 10 µM	10 µM	1	CC(C)([C@H]1C[C@@H](NC(=O)c2ncc(C(F)(F)F)cc2S(C)(=O)=O)C1)S(=O)(=O)c1cccc(OC(F)(F)F)c1 [Compound 644]		≥ 10 µM
	8.03 µM	1.53 µM	5.2		10 µM		CNC1(CC(=O)N[C@H]2C[C@@H](C(C)(C)S(=O)(=O)c3cccc(OC(F)(F)F)c3)C2)CCCCC1 [Compound 661]	≥ 10 µM	≥ 10 µM
	2.77 µM	0.9 µM	3.1	≥ 10 µM	10 µM	1	CC(C)(C[C@H]1C[C@H](NC(=O)CC2(N)CCCCC2)C1)S(=O)(=O)c1cccc(C(F)(F)F)c1 [Compound 726]	≥ 10 µM	≥ 10 µM
	5.52 µM	0.87 µM	6.3		10 µM		CC(C)([C@H]1C[C@H](NC(=O)CC2(N)CCCCC2)C1)S(=O)(=O)c1cccc(OC(F)(F)F)c1 [Compound 656]	≥ 10 µM	≥ 10 µM
	6.52 µM	1.16 µM	5.6		10 µM		CC(C)([C@H]1C[C@@H](NC(=O)CC2(N)CCCCC2)C1)S(=O)(=O)c1cccc(OC(F)(F)F)c1 [Compound 655]	≥ 10 µM	≥ 10 µM

More lines, now with the values behind:

Compound	IC50 [1]	IC50 (Human Cav 2.2 channels; [2])	IC50 (Human Cav 2.2 channels; [3])	CAv2.2 IC50 Ratio closed/inact. (Human Cav 2.2 channels)	IC50 (T-type calcium channel; [4])	IC50 (T-type calcium channel; [5])	CAv3.2 IC50 Ratio closed/inact. (T-type calcium channel)	IC50 (CAv1.2; [6])	IC50 (CAv1.2; [7])
2-chloro-6-(trifluoromethyl)-N- ((1R,4R)-4-(3- (tritluoromethyl)phenylsulfonyl) cyclohexyl)nicotinamide [Compound 187]	7000 nM								
Cn1nc(C(F)(F)F)cc1C(=O)NC[C@]1(O)CC[C@@H](S(=O)(=O)c2cccc(C(F)(F)F)c2)CC1 [Compound 231, N-(((1S,4S)-1-hydroxy-4-(3-(trifluoromethyl)phenylsulfonyl)cyclohexyl)methyl)-1-methyl-3-(trifluoromethyl)-1H-pyrazole-5-carboxamide]	1870 nM								
Cc1nc(S(=O)(=O)N[C@H]2C[C@@H](C(C)(C)S(=O)(=O)c3cc(F)cc(C(F)(F)F)c3)C2)cn1C [Compound 604]		10 µM	4.38 µM	2.3	≥ 10 µM			≥ 10 µM	≥ 10 µM
N[C@@H]1CCCC[C@H]1C(=O)NC[C@H]1C[C@H](S(=O)(=O)c2cccc(OC(F)(F)F)c2)C1 [Compound 714]		5.77 µM	2.29 µM	2.5	≥ 10 µM	10 µM	1	≥ 10 µM	
CC(C)([C@H]1C[C@@H](NC(=O)c2ncc(C(F)(F)F)cn2)C1)S(=O)(=O)c1cccc(C(F)(F)F)c1 [Compound 583]		10 µM	1.12 µM	8.9		10 µM		≥ 10 µM	
CC(C)([C@H]1C[C@H](NC(=O)c2ccc(C(F)(F)F)cc2S(C)(=O)=O)C1)S(=O)(=O)c1cc(F)cc(C(F)(F)F)c1 [Compound 592]		10 µM	0.46 µM	21.7	≥ 10 µM	10 µM	1	≥ 10 µM	≥ 10 µM
O=C(NC[C@H]1C[C@H](S(=O)(=O)c2cccc(OC(F)(F)F)c2)C1)c1ccnc(C(F)(F)F)n1 [Compound 697]		3.78 µM	0.71 µM	5.3	≥ 10 µM	8.91 µM	1.1	≥ 10 µM	≥ 10 µM
CC(C)(C[C@H]1C[C@@H](NC(=O)c2ncc(C(F)(F)F)cc2S(C)(=O)=O)C1)S(=O)(=O)c1cccc(C(F)(F)F)c1 [Compound 730]		9.1 µM	0.46 µM	19.8	≥ 10 µM	10 µM	1	≥ 10 µM	≥ 10 µM
CC(C)([C@H]1C[C@H](NC(=O)CC2(N)CCCCC2)C1)S(=O)(=O)c1cc(F)cc(C(F)(F)F)c1 [Compound 654]		8.47 µM	1.44 µM	5.9		10 µM		≥ 10 µM	≥ 10 µM
O=C(NC[C@H]1C[C@H](S(=O)(=O)c2cccc(OC(F)(F)F)c2)C1)c1ccc(OCC(F)(F)F)nc1 [Compound 699]		7.86 µM		3.1	≥ 10 µM		1	≥ 10 µM	
CC(C)(C[C@H]1C[C@H](NC(=O)[C@@H]2CCCC[C@@H]2N)C1)S(=O)(=O)c1cccc(C(F)(F)F)c1 [Compound 727]		4.1 µM	0.95 µM	4.3		10 µM			≥ 10 µM
CC(C)(C[C@H]1C[C@H](NC(=O)[C@@H]2CCCC[C@H]2N)C1)S(=O)(=O)c1cccc(C(F)(F)F)c1 [Compound 728]		3.64 µM	1.56 µM	2.3		10 µM		≥ 10 µM	
